Measurements reported in BindingDB's records for doi:10.1016/j.bmc.2009.10.004 (Kinki University, 2010).
pKi: −log10 of the molar value.

Molecular target: Beta-secretase 1 (Homo sapiens, UniProt P56817)
Test: Competitive inhibition of human recombinant BACE1 by Lineweaver-Burke plot analysis

Sequence of Beta-secretase 1 (P56817 whole entry): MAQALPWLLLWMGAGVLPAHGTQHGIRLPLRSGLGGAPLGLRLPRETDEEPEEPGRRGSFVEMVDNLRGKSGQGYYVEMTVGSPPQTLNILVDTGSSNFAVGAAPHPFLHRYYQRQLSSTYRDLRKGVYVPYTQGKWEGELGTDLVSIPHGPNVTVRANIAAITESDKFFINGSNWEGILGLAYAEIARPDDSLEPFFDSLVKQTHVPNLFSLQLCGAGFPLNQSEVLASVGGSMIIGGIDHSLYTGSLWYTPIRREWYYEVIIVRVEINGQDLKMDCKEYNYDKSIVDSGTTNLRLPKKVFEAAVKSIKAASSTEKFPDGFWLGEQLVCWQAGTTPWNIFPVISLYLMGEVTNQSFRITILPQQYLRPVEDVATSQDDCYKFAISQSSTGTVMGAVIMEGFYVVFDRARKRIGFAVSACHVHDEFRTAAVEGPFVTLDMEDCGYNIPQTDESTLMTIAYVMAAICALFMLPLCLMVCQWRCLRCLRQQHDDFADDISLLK

- pKi: 4.95
Structure (SMILES): COC(=O)CCc1c(O)cc2occc2c1OCC=C(C)C [6,7-Furano-5-prenyloxy hydrocoumaric acid methyl ester]
